Experimental data reported in ChEMBL document CHEMBL1201861, “Genomics of Drug Sensitity in Cancer screening data, Wellcome Trust Sanger Institute”.
pIC50: −log10 of the molar value.

What was measured:
Test in all cases: cells
Conditions in all cases: Homo sapiens
TYK-nu = format: functional, cell-based;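 also: growth inhibition of human TYK-nu cells, read out by a cell viability assay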
Description: SANGER: Inhibition of human TYK-nu cell growth in a cell viability assay.

ME-180 = format: functional, cell-based;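 also: cell viability assay measuring growth inhibition of ME-180 cells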
Description: SANGER: Inhibition of human ME-180 cell growth in a cell viability assay.

NCI-H2228 = format: functional, cell-based;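 also: growth inhibition of human NCI-H2228 cells, read out by a cell viability assay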
Description: SANGER: Inhibition of human NCI-H2228 cell growth in a cell viability assay.

SW780 = format: functional, cell-based;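 also: growth inhibition of the cells, read out with a cell viability assay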
Description: SANGER: Inhibition of human SW780 cell growth in a cell viability assay.

NCI-H2347 = format: functional, cell-based;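 also: growth inhibition of the cell line, read out with a cell viability assay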
Description: SANGER: Inhibition of human NCI-H2347 cell growth in a cell viability assay.

MEL-JUSO = format: functional, cell-based;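 also: growth inhibition of human MEL-JUSO cells, read out with a cell viability assay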
Description: SANGER: Inhibition of human MEL-JUSO cell growth in a cell viability assay.

SNU-387 = format: functional, cell-based
Description: SANGER: Inhibition of human SNU-387 cell growth in a cell viability assay.

RMG-I = format: functional, cell-based;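 also: growth inhibition of human RMG-I cells, read out with a cell viability assay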
Description: SANGER: Inhibition of human RMG-I cell growth in a cell viability assay.

KYSE-150 cell line = format: functional, cell-based;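 also: growth inhibition of human KYSE-150 cells, read out with a cell viability assay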
Description: SANGER: Inhibition of human KYSE-150 cell growth in a cell viability assay.

EW-22 = format: functional, cell-based;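 also: growth inhibition of the EW-22 cell line, measured with a cell viability readout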
Description: SANGER: Inhibition of human EW-22 cell growth in a cell viability assay.

C3A = format: functional, cell-based;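 also: growth inhibition of C3A human cells, quantified with a cell viability readout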
Description: SANGER: Inhibition of human C3A cell growth in a cell viability assay.

MOLT-13 = format: functional, cell-based;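 also: IC50 for suppression of MOLT-13 cell growth, read out with a cell viability assay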
Description: SANGER: Inhibition of human MOLT-13 cell growth in a cell viability assay.

D-542MG = format: functional, cell-based
Description: SANGER: Inhibition of human D-542MG cell growth in a cell viability assay.

HLE = format: functional, cell-based;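 also: growth inhibition of human HLE cells, read out by a cell viability assay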
Description: SANGER: Inhibition of human HLE cell growth in a cell viability assay.

NCI-H1048 = format: functional, cell-based;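 also: growth inhibition of human NCI-H1048 cells, read out with a cell viability assay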
Description: SANGER: Inhibition of human NCI-H1048 cell growth in a cell viability assay.

HCT-116 = format: functional, cell-based
Description: SANGER: Inhibition of human HCT-116 cell growth in a cell viability assay.

EGI-1 = format: functional, cell-based;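 also: cell viability readout used to gauge growth inhibition of EGI-1 cells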
Description: SANGER: Inhibition of human EGI-1 cell growth in a cell viability assay.

SNU-423 = format: functional, cell-based
Description: SANGER: Inhibition of human SNU-423 cell growth in a cell viability assay.

ChaGo-K-1 = format: functional, cell-based;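 also: growth inhibition of ChaGo-K-1 cells, read out with a cell viability assay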
Description: SANGER: Inhibition of human ChaGo-K-1 cell growth in a cell viability assay.

KYSE-270 = format: functional, cell-based;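 also: cell growth inhibition measured with a viability assay in the human KYSE-270 line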
Description: SANGER: Inhibition of human KYSE-270 cell growth in a cell viability assay.

YH-13 = format: functional, cell-based;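 also: cell viability readout of growth suppression in the human YH-13 cell line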
Description: SANGER: Inhibition of human YH-13 cell growth in a cell viability assay.

KYSE-180 = format: functional, cell-based;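 also: growth inhibition of KYSE-180 cells, read out with a cell viability assay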
Description: SANGER: Inhibition of human KYSE-180 cell growth in a cell viability assay.

RERF-LC-MS = format: functional, cell-based;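 also: growth inhibition of human RERF-LC-MS cells, read out by a cell viability assay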
Description: SANGER: Inhibition of human RERF-LC-MS cell growth in a cell viability assay.

PC-14 = format: functional, cell-based;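 also: cell viability assay measuring inhibition of PC-14 cell growth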
Description: SANGER: Inhibition of human PC-14 cell growth in a cell viability assay.

HuP-T4 = format: functional, cell-based;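 also: cell viability assay measuring how much HuP-T4 cell growth is inhibited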
Description: SANGER: Inhibition of human HuP-T4 cell growth in a cell viability assay.

647-V = format: functional, cell-based;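 also: growth inhibition of 647-V cells, read out with a cell viability assay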
Description: SANGER: Inhibition of human 647-V cell growth in a cell viability assay.

LB996-RCC = format: functional, cell-based
Description: SANGER: Inhibition of human LB996-RCC cell growth in a cell viability assay.

PANC-03-27 = format: functional, cell-based
Description: SANGER: Inhibition of human PANC-03-27 cell growth in a cell viability assay.

KU-19-19 = format: functional, cell-based
Description: SANGER: Inhibition of human KU-19-19 cell growth in a cell viability assay.

HPAF-II = format: functional, cell-based;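 also: growth inhibition of HPAF-II cells, read out with a cell viability assay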
Description: SANGER: Inhibition of human HPAF-II cell growth in a cell viability assay.

HT1197 = format: functional, cell-based, HT-1197
Description: SANGER: Inhibition of human HT-1197 cell growth in a cell viability assay.

BFTC-909 = format: functional, cell-based
Description: SANGER: Inhibition of human BFTC-909 cell growth in a cell viability assay.

SW1463 = format: functional, cell-based;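 also: growth inhibition of SW1463 cells, determined with a cell viability assay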
Description: SANGER: Inhibition of human SW1463 cell growth in a cell viability assay.

A 172 = format: functional, cell-based;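 also: growth inhibition of A172 cells, measured with a cell viability readout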
Description: SANGER: Inhibition of human A172 cell growth in a cell viability assay.

NCI-H1703 = format: functional, cell-based;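 also: growth inhibition of NCI-H1703 cells, read out via a cell viability assay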
Description: SANGER: Inhibition of human NCI-H1703 cell growth in a cell viability assay.

CAL-62 = format: functional, cell-based;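 also: growth inhibition of CAL-62 cells, read out with a cell viability assay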
Description: SANGER: Inhibition of human CAL-62 cell growth in a cell viability assay.

SW48 = format: functional, cell-based;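 also: growth inhibition of SW48 cells, read out with a cell viability assay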
Description: SANGER: Inhibition of human SW48 cell growth in a cell viability assay.

NB14 = format: functional, cell-based;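 also: growth inhibition of NB14 cells measured with a cell viability assay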
Description: SANGER: Inhibition of human NB14 cell growth in a cell viability assay.

COR-L23 = format: functional, cell-based;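 also: cell viability assay measuring how strongly compounds suppress growth of COR-L23 cells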
Description: SANGER: Inhibition of human COR-L23 cell growth in a cell viability assay.

CAL-51 = format: functional, cell-based;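 also: human CAL-51 cell line, growth inhibition read out via a cell viability assay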
Description: SANGER: Inhibition of human CAL-51 cell growth in a cell viability assay.

A253 cell line = format: functional, cell-based;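 also: growth inhibition of A253 cells, read out with a cell viability assay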
Description: SANGER: Inhibition of human A253 cell growth in a cell viability assay.

MEL-HO = format: functional, cell-based
Description: SANGER: Inhibition of human MEL-HO cell growth in a cell viability assay.

AGS = format: functional, cell-based;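 also: growth inhibition of AGS cells, determined with a cell viability assay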
Description: SANGER: Inhibition of human AGS cell growth in a cell viability assay.

PANC-08-13 = format: functional, cell-based;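 also: cell growth inhibition, measured with a cell viability assay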
Description: SANGER: Inhibition of human PANC-08-13 cell growth in a cell viability assay.

T47D = format: functional, cell-based;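 also: growth inhibition of human T47D cells, measured with a cell viability assay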
Description: SANGER: Inhibition of human T47D cell growth in a cell viability assay.

**Q.** `CCCS(=O)(=O)Nc1ccc(F)c(C(=O)c2c[nH]c3ncc(Cl)cc23)c1F` [PLX-4720] was tested. Which pIC50 (TYK-nu) did it give?
**A.** < 5.00

**Q.** And the pIC50 (ME-180)?
**A.** < 5.00

**Q.** And the pIC50 (NCI-H2228)?
**A.** < 5.00

**Q.** And the pIC50 (SW780)?
**A.** < 5.00

**Q.** And the pIC50 (NCI-H2347)?
**A.** < 5.00

**Q.** And the pIC50 (MEL-JUSO)?
**A.** < 5.00

**Q.** And the pIC50 (SNU-387)?
**A.** < 5.00

**Q.** What about the pIC50 (RMG-I) of the same molecule?
**A.** < 5.00

**Q.** And the pIC50 (KYSE-150 cell line)?
**A.** < 5.00

**Q.** What about the pIC50 (EW-22) of the same molecule?
**A.** < 5.00

**Q.** And the pIC50 (C3A)?
**A.** < 5.00

**Q.** What about the pIC50 (MOLT-13) of the same molecule?
**A.** < 5.00

**Q.** And the pIC50 (D-542MG)?
**A.** < 5.00

**Q.** What about the pIC50 (HLE) of the same molecule?
**A.** < 5.00

**Q.** What about the pIC50 (NCI-H1048) of the same molecule?
**A.** < 5.00

**Q.** What about the pIC50 (HCT-116) of the same molecule?
**A.** < 5.00

**Q.** And the pIC50 (EGI-1)?
**A.** < 5.00

**Q.** What about the pIC50 (SNU-423) of the same molecule?
**A.** < 5.00

**Q.** And the pIC50 (ChaGo-K-1)?
**A.** < 5.00

**Q.** And the pIC50 (KYSE-270)?
**A.** < 5.00

**Q.** What about the pIC50 (YH-13) of the same molecule?
**A.** < 5.00

**Q.** And the pIC50 (KYSE-180)?
**A.** < 5.00

**Q.** And the pIC50 (RERF-LC-MS)?
**A.** < 5.00

**Q.** And the pIC50 (PC-14)?
**A.** < 5.00

**Q.** And the pIC50 (HuP-T4)?
**A.** < 5.00

**Q.** What about the pIC50 (647-V) of the same molecule?
**A.** < 5.00

**Q.** And the pIC50 (LB996-RCC)?
**A.** < 5.00

**Q.** What about the pIC50 (PANC-03-27) of the same molecule?
**A.** < 5.00

**Q.** And the pIC50 (KU-19-19)?
**A.** < 5.00

**Q.** And the pIC50 (HPAF-II)?
**A.** < 5.00

**Q.** What about the pIC50 (HT1197) of the same molecule?
**A.** < 5.00

**Q.** What about the pIC50 (BFTC-909) of the same molecule?
**A.** < 5.00

**Q.** What about the pIC50 (SW1463) of the same molecule?
**A.** < 5.00

**Q.** And the pIC50 (A 172)?
**A.** < 5.00

**Q.** What about the pIC50 (NCI-H1703) of the same molecule?
**A.** < 5.00

**Q.** And the pIC50 (CAL-62)?
**A.** < 5.00

**Q.** What about the pIC50 (SW48) of the same molecule?
**A.** < 5.00

**Q.** What about the pIC50 (NB14) of the same molecule?
**A.** < 5.00

**Q.** What about the pIC50 (COR-L23) of the same molecule?
**A.** < 5.00

**Q.** What about the pIC50 (CAL-51) of the same molecule?
**A.** < 5.00

**Q.** And the pIC50 (A253 cell line)?
**A.** < 5.00

**Q.** And the pIC50 (MEL-HO)?
**A.** 6.39

**Q.** What about the pIC50 (AGS) of the same molecule?
**A.** < 5.00

**Q.** What about the pIC50 (PANC-08-13) of the same molecule?
**A.** < 5.00

**Q.** What about the pIC50 (T47D) of the same molecule?
**A.** < 5.00

**Q.** With `CC[C@]1(O)C[C@@H]2CN(CCc3c([nH]c4ccccc34)[C@@](C(=O)OC)(c3cc4c(cc3OC)N(C)[C@H]3[C@@](O)(C(=O)OC)[C@H](OC(C)=O)[C@]5(CC)C=CCN6CC[C@]43[C@@H]65)C2)C1` [VINBLASTINE] as the molecule, how does the pIC50 (TYK-nu) read?
**A.** 7.92

**Q.** And the pIC50 (ME-180)?
**A.** 8.35

**Q.** And the pIC50 (NCI-H2228)?
**A.** 7.39

**Q.** What about the pIC50 (SW780) of the same molecule?
**A.** 8.63

**Q.** What about the pIC50 (NCI-H2347) of the same molecule?
**A.** < 7.00

**Q.** And the pIC50 (MEL-JUSO)?
**A.** 7.76

**Q.** And the pIC50 (SNU-387)?
**A.** 7.94

**Q.** What about the pIC50 (RMG-I) of the same molecule?
**A.** < 7.00

**Q.** And the pIC50 (KYSE-150 cell line)?
**A.** 7.33

**Q.** And the pIC50 (EW-22)?
**A.** 7.53

**Q.** What about the pIC50 (C3A) of the same molecule?
**A.** < 7.00

**Q.** What about the pIC50 (MOLT-13) of the same molecule?
**A.** 8.25

**Q.** And the pIC50 (D-542MG)?
**A.** < 7.00

**Q.** What about the pIC50 (HLE) of the same molecule?
**A.** 8.37

**Q.** What about the pIC50 (NCI-H1048) of the same molecule?
**A.** 8.00

**Q.** And the pIC50 (HCT-116)?
**A.** 8.44

**Q.** And the pIC50 (EGI-1)?
**A.** 7.97

**Q.** And the pIC50 (SNU-423)?
**A.** 7.71

**Q.** And the pIC50 (ChaGo-K-1)?
**A.** 8.99

**Q.** And the pIC50 (KYSE-270)?
**A.** 8.02

**Q.** What about the pIC50 (YH-13) of the same molecule?
**A.** 8.43

**Q.** What about the pIC50 (KYSE-180) of the same molecule?
**A.** 8.19

**Q.** What about the pIC50 (RERF-LC-MS) of the same molecule?
**A.** 7.82

**Q.** What about the pIC50 (PC-14) of the same molecule?
**A.** 8.45

**Q.** What about the pIC50 (HuP-T4) of the same molecule?
**A.** 7.36

**Q.** And the pIC50 (647-V)?
**A.** 7.64

**Q.** And the pIC50 (PANC-03-27)?
**A.** 8.26

**Q.** And the pIC50 (KU-19-19)?
**A.** 7.36

**Q.** What about the pIC50 (HPAF-II) of the same molecule?
**A.** 7.40

**Q.** What about the pIC50 (HT1197) of the same molecule?
**A.** 7.00

**Q.** What about the pIC50 (BFTC-909) of the same molecule?
**A.** 8.12

**Q.** What about the pIC50 (SW1463) of the same molecule?
**A.** 7.16

**Q.** And the pIC50 (A 172)?
**A.** 8.02

**Q.** And the pIC50 (NCI-H1703)?
**A.** 8.84

**Q.** What about the pIC50 (CAL-62) of the same molecule?
**A.** 8.00

**Q.** What about the pIC50 (SW48) of the same molecule?
**A.** 8.16

**Q.** What about the pIC50 (NB14) of the same molecule?
**A.** 8.31

**Q.** What about the pIC50 (COR-L23) of the same molecule?
**A.** 8.44

**Q.** And the pIC50 (CAL-51)?
**A.** 7.79

**Q.** And the pIC50 (MEL-HO)?
**A.** 7.27

**Q.** And the pIC50 (AGS)?
**A.** 7.91

**Q.** And the pIC50 (PANC-08-13)?
**A.** 7.21

**Q.** And the pIC50 (T47D)?
**A.** 8.11
